Assay results published in US20150087627A1, “COMBINATION OF KINASE INHIBITORS AND USES THEREOF” (Intellikine LLC, priority 2011, published 2015).

What was measured:
Format in all cases: biochemical
PI3K δ = biological target: T1, PI3K δ (Homo sapiens, UniProt O00329); test: PI 3-Kinase (human) HTRF assay, PI3K δ; conditions: read-out: PI3K δ IC50
T1 construct: purchased Upstate / Millipore Corporation

PI3K α (p110α/p85α) = biological target: T2, PI3K α (p110α/p85α) (Homo sapiens, UniProt P42336); test: PI 3-Kinase (human) HTRF assay, PI3K α; conditions: read-out: PI3K α IC50
T2 construct: purchased Upstate / Millipore Corporation
T2 sequence (P42336 whole entry): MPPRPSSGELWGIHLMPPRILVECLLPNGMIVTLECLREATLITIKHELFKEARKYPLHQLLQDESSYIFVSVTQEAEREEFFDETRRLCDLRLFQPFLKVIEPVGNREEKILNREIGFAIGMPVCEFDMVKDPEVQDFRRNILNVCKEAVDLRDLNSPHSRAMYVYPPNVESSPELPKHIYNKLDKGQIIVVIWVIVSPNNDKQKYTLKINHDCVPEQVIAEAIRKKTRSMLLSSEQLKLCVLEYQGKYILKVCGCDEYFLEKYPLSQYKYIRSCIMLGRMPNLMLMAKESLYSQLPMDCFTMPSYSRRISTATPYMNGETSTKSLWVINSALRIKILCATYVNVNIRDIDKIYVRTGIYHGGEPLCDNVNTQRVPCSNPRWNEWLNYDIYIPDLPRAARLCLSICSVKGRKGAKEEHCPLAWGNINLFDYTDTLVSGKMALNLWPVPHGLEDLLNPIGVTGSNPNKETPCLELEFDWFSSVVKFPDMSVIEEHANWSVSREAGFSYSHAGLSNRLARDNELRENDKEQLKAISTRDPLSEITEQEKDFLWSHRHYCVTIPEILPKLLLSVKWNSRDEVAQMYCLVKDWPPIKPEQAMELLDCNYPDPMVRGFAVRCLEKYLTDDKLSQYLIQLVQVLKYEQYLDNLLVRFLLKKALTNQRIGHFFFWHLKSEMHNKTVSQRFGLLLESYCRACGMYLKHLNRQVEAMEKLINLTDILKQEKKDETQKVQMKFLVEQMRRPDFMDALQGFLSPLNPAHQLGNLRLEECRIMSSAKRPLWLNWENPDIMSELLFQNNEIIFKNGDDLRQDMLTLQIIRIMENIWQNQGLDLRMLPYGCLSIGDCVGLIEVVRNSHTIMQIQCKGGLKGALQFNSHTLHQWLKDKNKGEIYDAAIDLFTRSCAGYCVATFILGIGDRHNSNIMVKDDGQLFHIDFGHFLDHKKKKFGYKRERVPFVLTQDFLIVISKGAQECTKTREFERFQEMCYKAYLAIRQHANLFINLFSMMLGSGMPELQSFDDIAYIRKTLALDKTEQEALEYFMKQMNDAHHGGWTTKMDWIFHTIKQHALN
T2 sequence (P27986 whole entry partner): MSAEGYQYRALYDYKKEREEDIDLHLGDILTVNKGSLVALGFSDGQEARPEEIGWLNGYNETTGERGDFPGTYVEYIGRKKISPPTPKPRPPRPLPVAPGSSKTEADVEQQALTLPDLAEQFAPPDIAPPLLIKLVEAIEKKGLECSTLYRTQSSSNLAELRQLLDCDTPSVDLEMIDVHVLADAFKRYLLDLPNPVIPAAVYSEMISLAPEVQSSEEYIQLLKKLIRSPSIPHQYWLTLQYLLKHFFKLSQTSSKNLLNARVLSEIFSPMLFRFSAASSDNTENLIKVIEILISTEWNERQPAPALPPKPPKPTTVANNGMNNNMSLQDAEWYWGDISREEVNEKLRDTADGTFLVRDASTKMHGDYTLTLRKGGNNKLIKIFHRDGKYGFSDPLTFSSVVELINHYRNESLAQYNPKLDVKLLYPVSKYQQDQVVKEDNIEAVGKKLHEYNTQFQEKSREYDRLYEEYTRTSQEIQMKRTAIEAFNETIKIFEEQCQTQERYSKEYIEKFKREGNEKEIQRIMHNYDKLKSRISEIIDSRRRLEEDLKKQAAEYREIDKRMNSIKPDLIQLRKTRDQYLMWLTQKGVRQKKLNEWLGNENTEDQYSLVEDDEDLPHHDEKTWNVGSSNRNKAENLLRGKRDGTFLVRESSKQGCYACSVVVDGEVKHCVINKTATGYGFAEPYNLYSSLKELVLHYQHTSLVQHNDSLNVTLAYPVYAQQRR

PI3K γ (p110γ) = biological target: T3, PI3K γ (p110γ) (Homo sapiens, UniProt P48736); test: PI 3-Kinase (human) HTRF assay, PI3K γ; conditions: read-out: PI3K γ IC50
T3 construct: purchased Upstate / Millipore Corporation
T3 sequence (P48736 whole entry): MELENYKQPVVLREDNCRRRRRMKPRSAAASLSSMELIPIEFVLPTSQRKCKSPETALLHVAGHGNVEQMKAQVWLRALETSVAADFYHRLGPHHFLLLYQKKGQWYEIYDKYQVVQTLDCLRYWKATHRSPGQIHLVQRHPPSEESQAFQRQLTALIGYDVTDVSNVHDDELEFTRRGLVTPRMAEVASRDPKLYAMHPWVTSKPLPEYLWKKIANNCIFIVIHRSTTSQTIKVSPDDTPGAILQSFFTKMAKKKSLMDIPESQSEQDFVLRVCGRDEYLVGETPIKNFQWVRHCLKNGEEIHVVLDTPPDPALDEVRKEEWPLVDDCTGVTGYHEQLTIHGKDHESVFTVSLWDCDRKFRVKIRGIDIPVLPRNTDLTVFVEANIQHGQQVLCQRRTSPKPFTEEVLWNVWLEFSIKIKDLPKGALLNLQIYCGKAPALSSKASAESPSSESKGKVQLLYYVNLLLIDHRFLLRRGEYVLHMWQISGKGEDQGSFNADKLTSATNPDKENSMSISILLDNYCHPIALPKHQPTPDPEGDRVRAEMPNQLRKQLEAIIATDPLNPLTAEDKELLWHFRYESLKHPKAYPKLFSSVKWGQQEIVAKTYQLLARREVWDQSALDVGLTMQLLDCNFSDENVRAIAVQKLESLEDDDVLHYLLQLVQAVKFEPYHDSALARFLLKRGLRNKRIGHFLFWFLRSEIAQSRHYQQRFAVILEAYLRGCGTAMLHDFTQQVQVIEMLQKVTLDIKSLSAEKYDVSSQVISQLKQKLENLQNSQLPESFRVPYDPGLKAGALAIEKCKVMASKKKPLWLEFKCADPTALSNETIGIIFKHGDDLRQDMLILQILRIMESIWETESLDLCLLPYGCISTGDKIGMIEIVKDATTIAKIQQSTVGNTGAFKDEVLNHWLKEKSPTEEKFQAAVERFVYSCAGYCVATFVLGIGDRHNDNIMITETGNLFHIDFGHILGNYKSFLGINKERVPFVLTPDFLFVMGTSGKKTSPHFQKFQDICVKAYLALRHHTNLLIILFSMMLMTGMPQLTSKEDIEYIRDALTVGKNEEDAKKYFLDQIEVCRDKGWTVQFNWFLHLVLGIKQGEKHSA

PI3K β (p110β/p85α) = biological target: T4, PI3K β (p110β/p85α) (Homo sapiens, UniProt P42338); test: PI 3-Kinase (human) HTRF assay, PI3K β; conditions: read-out: PI3K β IC50
T4 construct: purchased Upstate / Millipore Corporation
T4 sequence (P42338 whole entry): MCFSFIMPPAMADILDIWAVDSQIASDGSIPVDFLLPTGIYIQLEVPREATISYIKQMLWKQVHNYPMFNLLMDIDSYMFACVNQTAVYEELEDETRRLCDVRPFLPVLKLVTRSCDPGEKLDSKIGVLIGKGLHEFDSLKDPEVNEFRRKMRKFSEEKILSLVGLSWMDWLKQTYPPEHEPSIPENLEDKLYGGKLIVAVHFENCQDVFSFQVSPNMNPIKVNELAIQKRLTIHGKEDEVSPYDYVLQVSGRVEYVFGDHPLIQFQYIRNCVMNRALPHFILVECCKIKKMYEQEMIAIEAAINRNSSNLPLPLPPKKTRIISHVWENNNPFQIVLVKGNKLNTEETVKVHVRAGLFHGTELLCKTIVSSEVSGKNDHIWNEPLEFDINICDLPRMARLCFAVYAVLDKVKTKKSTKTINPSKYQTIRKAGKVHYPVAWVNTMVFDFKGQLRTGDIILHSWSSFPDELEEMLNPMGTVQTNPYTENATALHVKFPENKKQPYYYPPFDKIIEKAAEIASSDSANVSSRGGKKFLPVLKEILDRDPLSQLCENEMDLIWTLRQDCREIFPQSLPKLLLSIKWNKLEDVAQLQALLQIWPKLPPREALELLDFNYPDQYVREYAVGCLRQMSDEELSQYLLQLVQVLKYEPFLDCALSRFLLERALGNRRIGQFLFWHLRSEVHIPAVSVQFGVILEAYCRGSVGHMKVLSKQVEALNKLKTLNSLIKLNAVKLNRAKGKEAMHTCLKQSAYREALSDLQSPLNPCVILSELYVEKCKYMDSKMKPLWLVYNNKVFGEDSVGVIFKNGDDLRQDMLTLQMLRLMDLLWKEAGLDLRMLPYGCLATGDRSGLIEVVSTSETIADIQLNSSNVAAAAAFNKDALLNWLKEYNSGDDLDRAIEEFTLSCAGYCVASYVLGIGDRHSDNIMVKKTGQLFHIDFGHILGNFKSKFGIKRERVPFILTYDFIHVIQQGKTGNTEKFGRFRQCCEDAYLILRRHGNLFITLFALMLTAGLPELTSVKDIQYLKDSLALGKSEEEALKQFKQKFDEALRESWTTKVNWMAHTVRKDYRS
T4 sequence (P27986 whole entry partner): as the sequence (P27986 whole entry partner) above

T1 sequence (O00329 whole entry): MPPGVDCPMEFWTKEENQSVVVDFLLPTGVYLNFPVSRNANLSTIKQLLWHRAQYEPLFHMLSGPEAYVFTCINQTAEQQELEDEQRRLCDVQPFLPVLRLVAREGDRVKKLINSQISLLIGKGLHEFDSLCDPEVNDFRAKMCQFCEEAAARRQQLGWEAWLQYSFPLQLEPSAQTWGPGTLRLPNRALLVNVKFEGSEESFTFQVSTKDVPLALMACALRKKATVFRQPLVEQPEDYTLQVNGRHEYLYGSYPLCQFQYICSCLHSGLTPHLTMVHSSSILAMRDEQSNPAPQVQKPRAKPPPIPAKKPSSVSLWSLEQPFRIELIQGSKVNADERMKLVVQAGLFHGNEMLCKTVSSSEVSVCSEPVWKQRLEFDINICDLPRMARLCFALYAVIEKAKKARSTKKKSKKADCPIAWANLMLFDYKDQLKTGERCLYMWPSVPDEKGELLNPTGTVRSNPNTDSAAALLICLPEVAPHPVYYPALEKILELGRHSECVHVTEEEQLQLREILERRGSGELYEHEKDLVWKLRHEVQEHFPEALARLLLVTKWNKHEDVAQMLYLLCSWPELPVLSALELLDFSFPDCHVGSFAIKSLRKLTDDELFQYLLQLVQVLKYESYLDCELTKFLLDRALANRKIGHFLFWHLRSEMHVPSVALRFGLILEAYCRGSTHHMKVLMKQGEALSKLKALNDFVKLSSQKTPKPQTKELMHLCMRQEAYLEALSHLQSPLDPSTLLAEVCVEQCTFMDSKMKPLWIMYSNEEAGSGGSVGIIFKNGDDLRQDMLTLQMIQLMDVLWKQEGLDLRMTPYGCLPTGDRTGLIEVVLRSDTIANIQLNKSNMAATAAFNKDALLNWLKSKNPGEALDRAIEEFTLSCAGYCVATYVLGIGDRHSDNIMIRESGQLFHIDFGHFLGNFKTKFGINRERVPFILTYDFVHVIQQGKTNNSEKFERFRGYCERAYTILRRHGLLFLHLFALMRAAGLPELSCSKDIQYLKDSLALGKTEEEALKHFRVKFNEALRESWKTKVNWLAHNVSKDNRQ
T1 sequence (P27986 whole entry partner): as the sequence (P27986 whole entry partner) above

| IC50 (PI3K δ) | IC50 (PI3K α (p110α/p85α)) | IC50 (PI3K β (p110β/p85α)) | SMILES | IC50 (PI3K γ (p110γ)) |
| --- | --- | --- | --- | --- |
| > 10 µM | > 10 µM | > 10 µM | Cc1c(-c2ccc3oc(N)nc3c2)ccc2ncc(C(=O)N3CCOCC3)n12 [Compound 349] | – |
| < 10 µM | < 1 µM | < 10 µM | Cc1cc(-c2ccc3oc(N)nc3c2)cc2c(C(=O)N3CCOCC3)cnn12 [Compound 357] | – |
| < 1 µM | < 0.1 µM | < 1 µM | Nc1nc2cc(-c3ccc4ncc(N5CC(N6CCOCC6)C5)nc4c3)cc(Cl)c2o1 [Compound 358] | – |
| > 10 µM | < 10 µM | > 10 µM | Nc1nc2cc(-c3ccc4ncc(C(=O)N5CCOCC5)n4c3)c(Cl)cc2o1 [Compound 370] | – |
| < 10 µM | < 1 µM | < 10 µM | Nc1nc2cc(-c3ccc4ncc(C(=O)N5CCOCC5)n4c3)c(F)cc2o1 [Compound 372] | – |
| < 10 µM | < 0.1 µM | < 10 µM | Nc1nc2cc(-c3ccc4ncc(N5CC[C@@H](N6CCOCC6)C5)nc4c3)ccc2o1 [Compound 376] | – |
| > 10 µM | < 0.1 µM | < 10 µM | Nc1nc2cc(-c3ccc4ncc(C(=O)N5CCOCC5)n4c3)cnc2o1 [Compound 400] | – |
| > 10 µM | > 10 µM | > 10 µM | Nc1nc2cc(-c3nc4cc(-c5cccnc5)cnc4s3)ccc2o1 [Compound 402] | – |
| > 10 µM | > 10 µM | > 10 µM | Nc1nc2cc(-c3ccc4nc(N)c(N5CC(N6CCOCC6)C5)nc4c3)ccc2o1 [Compound 404] | – |
| > 10 µM | > 10 µM | > 10 µM | CS(=O)(=O)Nc1nc2cc(-c3ccc4ncc(C(=O)N5CCOCC5)n4c3)ccc2o1 [Compound 405] | – |
| > 10 µM | < 10 µM | < 10 µM | CNc1nc2cc(-c3ccc4ncc(C(=O)N5CCOCC5)n4c3)ccc2o1 [Compound 406] | – |
| < 0.1 µM | < 0.1 µM | < 1 µM | COc1ncc(-c2ccc3ncc(C(=O)N4CCOCC4)n3c2)cc1NS(=O)(=O)c1cccc(F)c1 [Compound 423] | – |
| > 10 µM | < 10 µM | < 10 µM | CC(=O)Nc1n[nH]c2cc(-c3ccc4oc(N)nc4c3)ccc12 [Compound 430] | – |
| < 10 µM | < 1 µM | < 1 µM | Nc1nc2ccc(-c3cc(F)c4oc(N)nc4c3)cc2o1 [Compound 433] | – |
| < 1 µM | < 0.1 µM | < 0.1 µM | Nc1nc2cc(-c3ccc4nc(N)sc4c3)cc(F)c2o1 [Compound 436] | – |
| > 10 µM | < 10 µM | > 10 µM | Nc1nc2cc(-c3cc(F)c4ncc(C(=O)N5CCOCC5)n4c3)ccc2o1 [Compound 438] | – |
| > 10 µM | > 10 µM | > 10 µM | O=C(c1cnc2ccc(-c3cccc(S(=O)(=O)Nc4cc(F)ccc4F)c3)cn12)N1CCOCC1 [Compound 441] | – |

| SMILES | IC50 (PI3K δ) | IC50 (PI3K α (p110α/p85α)) | IC50 (PI3K β (p110β/p85α)) | IC50 (PI3K γ (p110γ)) |
| --- | --- | --- | --- | --- |
| Nc1nc2cc(-c3ccc4nccc(CCN5CCOCC5)c4c3)ccc2o1 [Compound 27] | < 10 µM | < 1 µM | – | < 0.1 µM |
| Nc1nc2cc(-c3ccc4nccc(N5CCOCC5)c4c3)ccc2o1 [Compound 28] | < 1 µM | < 0.1 µM | – | < 0.1 µM |
| Nc1nc2cc(-c3ccc4ncnc(N5CCC(O)CC5)c4c3)ccc2o1 [Compound 29] | < 0.1 µM | < 0.1 µM | – | < 0.1 µM |
| Cc1cc2oc(N)nc2cc1-c1ccc2ncc(C(=O)N3CCOCC3)n2c1 [Compound 352] | > 10 µM | > 10 µM | > 10 µM | – |
| Cc1c(-c2ccc3oc(N)nc3c2)ccc2ncc(N3CC(N4CCNCC4)C3)nc12 [Compound 386] | > 10 µM | < 0.1 µM | > 10 µM | – |
| COCCN1CCN(c2cnc3ccc(-c4ccc5oc(N)nc5c4)cc3n2)CC1 [Compound 387] | > 10 µM | < 0.1 µM | < 1 µM | – |
| COc1ncc(-c2ccc3ncc(C(=O)N4CCOCC4)n3c2)cc1N [Compound 414] | > 10 µM | < 10 µM | > 10 µM | – |
| Nc1nc2cc(-c3ccc4[nH]nc(N)c4c3)ccc2o1 [Compound 427] | > 10 µM | > 10 µM | > 10 µM | – |
| CC(=O)Nc1n[nH]c2ccc(-c3ccc4oc(N)nc4c3)cc12 [Compound 431] | > 10 µM | > 10 µM | > 10 µM | – |
| CC(=O)Nc1nc2ccc(-c3cc(F)c4oc(N)nc4c3)cc2s1 [Compound 434] | < 0.1 µM | < 0.1 µM | < 0.1 µM | – |
| O=C(c1cnc2ccc(-c3cccc(S(=O)(=O)Nc4ccccc4)c3)cn12)N1CCOCC1 [Compound 440] | > 10 µM | > 10 µM | > 10 µM | – |
